± gives the standard deviation of the averaged measurements.
Test system: HT1080
Assay: relative viability vs DMSO control (72 h) (fraction); higher = more viable cells
Outline: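 Sarcoma cell lines were seeded in 384-well plates at densities chosen for 80–90% confluence, then 24 h later given 2.5 µl of serially diluted compound drawn from source plates spanning 10 mM to 0.0002 mM. They were held 72 h at 37 °C, 5% CO2, with 0.1% DMSO vehicle and a 5 µM positive control included. Relative viability was read with ATPLite as percent growth and averaged over up to triplicate wells. Rescaling placed full at 1 and none at 0.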

## Cn1cnc2c(F)c(Nc3ccc(Br)cc3F)c(C(=O)NOCCO)cc21 [Binimetinib]
0.00017 µM
  relative viability: 1.1 ± 0.019
0.00051 µM
  relative viability: 1.09 ± 0.031
0.00152 µM
  relative viability: 1.09 ± 0.021
0.00457 µM
  relative viability: 1.03 ± 0.026
0.01372 µM
  relative viability: 1.031 ± 0.0075
0.04115 µM
  relative viability: 0.8738 ± 0.0029
0.1235 µM
  relative viability: 0.752 ± 0.017
0.3704 µM
  relative viability: 0.626 ± 0.015
1.111 µM
  relative viability: 0.577 ± 0.026
3.333 µM
  relative viability: 0.518 ± 0.034
10 µM
  relative viability: 0.451 ± 0.032

## CC(=O)Nc1cccc(-n2c(=O)n(C3CC3)c(=O)c3c(Nc4ccc(I)cc4F)n(C)c(=O)c(C)c32)c1 [Trametinib]
0.00017 µM
  relative viability: 1.1 ± 0.022
0.00051 µM
  relative viability: 1.119 ± 0.0055
0.00152 µM
  relative viability: 1.039 ± 0.0014
0.00457 µM
  relative viability: 0.981 ± 0.041
0.01372 µM
  relative viability: 0.638 ± 0.029
0.04115 µM
  relative viability: 0.537 ± 0.017
0.1235 µM
  relative viability: 0.478 ± 0.032
0.3704 µM
  relative viability: 0.377 ± 0.011
1.111 µM
  relative viability: 0.351 ± 0.02
3.333 µM
  relative viability: 0.334 ± 0.018
10 µM
  relative viability: 0.296 ± 0.014

## Cc1cc(Nc2ncnc3ccc(NC4=NC(C)(C)CO4)cc23)ccc1Oc1ccn2ncnc2c1 [Tucatinib]
0.00017 µM
  relative viability: 1.06 ± 0.043
0.00051 µM
  relative viability: 1.071 ± 0.0057
0.00152 µM
  relative viability: 1.108 ± 0.0063
0.00457 µM
  relative viability: 1.09 ± 0.054
0.01372 µM
  relative viability: 1.1 ± 0.027
0.04115 µM
  relative viability: 1.0875 ± 7.1e-05
0.1235 µM
  relative viability: 1.08 ± 0.032
0.3704 µM
  relative viability: 1.067 ± 0.01
1.111 µM
  relative viability: 1.05 ± 0.011
3.333 µM
  relative viability: 1.06 ± 0.026
10 µM
  relative viability: 0.948 ± 0.012

## CCN1CCN(Cc2ccc(Nc3ncc(F)c(-c4cc(F)c5nc(C)n(C(C)C)c5c4)n3)nc2)CC1 [Abemaciclib]
0.00017 µM
  relative viability: 1.05 ± 0.0085
0.00051 µM
  relative viability: 1.05 ± 0.034
0.00152 µM
  relative viability: 1.06 ± 0.018
0.00457 µM
  relative viability: 1.08 ± 0.034
0.01372 µM
  relative viability: 1.06 ± 0.011
0.04115 µM
  relative viability: 1.07 ± 0.018
0.1235 µM
  relative viability: 1.13 ± 0.053
0.3704 µM
  relative viability: 1.18 ± 0.045
1.111 µM
  relative viability: 1.15 ± 0.055
3.333 µM
  relative viability: 1.07 ± 0.045
10 µM
  relative viability: 0.926 ± 0.063

## Cc1nc(-c2cn3c(n2)-c2ccc(-c4cnn(C(C)(C)C(N)=O)c4)cc2OCC3)n(C(C)C)n1 [Taselisib]
0.00017 µM
  relative viability: 1.016 ± 0.01
0.00051 µM
  relative viability: 1.01 ± 0.017
0.00152 µM
  relative viability: 1.02 ± 0.015
0.00457 µM
  relative viability: 1.03 ± 0.056
0.01372 µM
  relative viability: 1.02 ± 0.011
0.04115 µM
  relative viability: 1.02 ± 0.016
0.1235 µM
  relative viability: 1.034 ± 0.0069
0.3704 µM
  relative viability: 1.04 ± 0.018
1.111 µM
  relative viability: 1.02 ± 0.052
3.333 µM
  relative viability: 1.01 ± 0.012
10 µM
  relative viability: 0.738 ± 0.0029

## C[C@@H]1COCCN1c1cc(-c2ccnn2C)c2ccnc(-c3ccn[nH]3)c2n1
0.00017 µM
  relative viability: 1.044 ± 0.0047
0.00051 µM
  relative viability: 1.03 ± 0.014
0.00152 µM
  relative viability: 1.024 ± 0.0029
0.00457 µM
  relative viability: 1.02 ± 0.025
0.01372 µM
  relative viability: 0.998 ± 0.035
0.04115 µM
  relative viability: 0.954 ± 0.017
0.1235 µM
  relative viability: 0.735 ± 0.037
0.3704 µM
  relative viability: 0.28 ± 0.0093
1.111 µM
  relative viability: 0.191 ± 0.0041
3.333 µM
  relative viability: 0.16 ± 0.0093
10 µM
  relative viability: 0.1555 ± 0.00028

## CO[C@H]1C[C@@H]2CC[C@@H](C)[C@@](O)(O2)C(=O)C(=O)N2CCCC[C@H]2C(=O)O[C@H]([C@H](C)C[C@@H]2CC[C@@H](OP(C)(C)=O)[C@H](OC)C2)CC(=O)[C@H](C)/C=C(\C)[C@@H](O)[C@@H](OC)C(=O)[C@H](C)C[C@H](C)/C=C/C=C/C=C/1C [Ridaforolimus]
0.00017 µM
  relative viability: 1.1 ± 0.019
0.00051 µM
  relative viability: 1.08 ± 0.02
0.00152 µM
  relative viability: 1.13 ± 0.047
0.00457 µM
  relative viability: 1.08 ± 0.03
0.01372 µM
  relative viability: 1.03 ± 0.011
0.04115 µM
  relative viability: 0.99 ± 0.028
0.1235 µM
  relative viability: 0.983 ± 0.034
0.3704 µM
  relative viability: 0.9952 ± 0.0077
1.111 µM
  relative viability: 0.9672 ± 0.0023
3.333 µM
  relative viability: 0.9615 ± 0.0033
10 µM
  relative viability: 0.934 ± 0.028
